Like-named read-outs stand apart in the source and are kept apart here. Marks after values point to notes of the source that are not given here.
Assays:
female Spague-Dawley rat [1] = experiment: Effect on cardiovascular system in conscious rats; type: in vivo; conditions: 30 minutes, relative to before administration
Procedure: (§1) This method was carried out in accordance with the literature [Experimental Methods in Pharmacology, 5th Revised Edition, p. 168, KYODO ISHO SHUPPAN CO., LTD.]
Each female Spague-Dawley rat was anesthetized with ether, and a polyethylene cannula was inserted into the left common carotid artery and fixed therein, followed by subcutaneously indwelling a cannula for drug administration. After recovery from anesthesia, the mean blood pressure and the heart rate were measured under free moving conditions.

female Spague-Dawley rat [2] = experiment: Number of voiding episodes in rat natural voiding behavior test; type: in vivo; conditions: 3 hours after the administration
female Spague-Dawley rat [3] = experiment: as above; type: in vivo; conditions: 1 hour after administration
Procedure: This method was carried out according to the literature [Jpn. J. Pharmacol., 87, 27 (2001)]. Each female Spague-Dawley rat was placed in a urine collection cage, and an electronic balance was placed under the cage. Excreted urine was allowed to fall into a urine collection tray placed on the electronic balance, and its change in weight every 10 seconds was scaled with time through a personal computer. Not less than 0.1 g of the change in weight was regarded as indicative of urination, and the weight of 1 g was regarded as corresponding to 1 mL of urine. Drug administration was carried out subcutaneously, and the number of voiding episodes was measured for 1 hour before and after the drug administration, to observe its change (number of cases: 11 to 18/group).
Significant difference test was carried out by student's-test or williams test, wherein a significance level of less than 5% was accepted as significant (* in the table).

female Spague-Dawley rat [4] = experiment: Effect on cardiovascular system in anesthetized rats; type: in vivo; conditions: cumulative, 30 minutes, relative to before administration
Procedure: as §1
Each female Spague-Dawley rat was anesthetized with urethane, and a polyethylene cannula was inserted into the left common carotid artery and fixed therein, to measure the mean blood pressure and the heart rate. […] Data were represented as amounts of the changes (blood pressure: mmHg, heart rate: %) relative to values before the administration (number of cases: 3 to 8/group).

[5] = biological target: T1, human adrenergic β2 receptor (Homo sapiens, UniProt P07550); experiment: Agonistic activity (cAMP production) against human adrenergic β2 receptor in CHO-K1 cells; type: cell-based
T1 construct: expressed in transfected cells; host or cells: CHO-K1 cells
T1 sequence (P07550 whole entry): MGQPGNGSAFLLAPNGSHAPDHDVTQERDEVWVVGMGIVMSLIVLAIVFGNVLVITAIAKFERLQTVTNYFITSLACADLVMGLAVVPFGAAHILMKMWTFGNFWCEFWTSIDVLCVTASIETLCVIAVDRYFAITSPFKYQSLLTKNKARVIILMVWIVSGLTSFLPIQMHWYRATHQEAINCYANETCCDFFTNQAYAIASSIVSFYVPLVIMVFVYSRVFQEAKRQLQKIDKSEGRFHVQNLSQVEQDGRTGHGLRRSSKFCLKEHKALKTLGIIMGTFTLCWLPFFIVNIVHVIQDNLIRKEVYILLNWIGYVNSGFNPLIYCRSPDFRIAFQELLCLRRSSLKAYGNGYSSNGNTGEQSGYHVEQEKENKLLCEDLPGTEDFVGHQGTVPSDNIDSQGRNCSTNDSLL
Procedure: (§2) This method was carried out according to the literature [J. Pharmacol. Exp. Ther., 271, 1253 (1994)] or [Naunyn-Schmiedeberg's Arch. Pharmacol., 369, 151 (2004)], using the amount of the production of cAMP as an index. The agonistic activity against human adrenergic β3 receptor was evaluated using SK-N-MC cells in the presence of a selective adrenergic β1 receptor antagonist (CGP-20712A, 1 μM). Evaluation of the agonistic activities against human adrenergic β2 and β1 receptors was carried out using CHO-K1 cells forcibly-expressed each receptor. Their cells were cultured in a culture flask. In assay day, they were detached and collected with EDTA, followed by dispensing in a 384-well plate so as to attain 10,000 cells/well. The test compound of each concentration was added to each well and allowed to react in a CO2 incubator at 37° C. for 30 minutes, followed by quantification of the produced cAMP using cAMP detection kit (Perkinelmer). The logarithm of the 50% reaction concentration of each test compound was calculated taking the reaction by 100 or 300 nM Isoproterenol as 100%. The test drug was added up to 10 μM, and in cases where reaction of not less than 50% was not observed at this concentration, the result was represented as n.d. (not detected).

[6] = test system: isolated bladder smooth muscle; experiment: Relaxing activity test against isolated bladder smooth muscle in rat; conditions: resting tension of isolated rat bladder; relaxation by 10 μM forskolin = 100%
Procedure: This method was carried out in accordance with the literature [J. Pharmacol. Exp. Ther., 293, 939 (2000)]. Each bladder was isolated from a normal Spague-Dawley rat, and a bladder section of the size of about 2×10 mm was prepared in the nutrient solution (Krebs solution [NaCl 118 mM; KCl 4.7 mM; NaH2PO4 1.1 mM; glucose 10 mM; NaHCO3 25 mM; MgCl2.7H2O 1 mM; CaCl2.2H2O 2.5 mM]) sufficiently oxygenated with 95% O2+5% CO2. The sample was suspended in a Magnus tube filled with the nutrient solution (Krebs solution) aerated with 95% O2+5% CO2 at 37° C., and stabilized under a load of 0.5 g for 60 minutes or longer. The resting tension of the bladder sample was recorded in a pen recorder through a tension transducer. The test compound was cumulatively applied about every 10 minutes. […] The test compound was dissolved in distilled water or aqueous 10% dimethylsulfoxide solution.

[7] = biological target: T2, human adrenergic β3 receptor (Homo sapiens, UniProt P13945); experiment: Agonistic activity (cAMP production) against human adrenergic β3 receptor in SK-N-MC cells; type: cell-based
T2 construct: evaluated using SK-N-MC cells in the presence of a selective adrenergic β1 receptor antagonist; endogenous in cells; host or cells: SK-N-MC cells
T2 sequence (P13945 whole entry): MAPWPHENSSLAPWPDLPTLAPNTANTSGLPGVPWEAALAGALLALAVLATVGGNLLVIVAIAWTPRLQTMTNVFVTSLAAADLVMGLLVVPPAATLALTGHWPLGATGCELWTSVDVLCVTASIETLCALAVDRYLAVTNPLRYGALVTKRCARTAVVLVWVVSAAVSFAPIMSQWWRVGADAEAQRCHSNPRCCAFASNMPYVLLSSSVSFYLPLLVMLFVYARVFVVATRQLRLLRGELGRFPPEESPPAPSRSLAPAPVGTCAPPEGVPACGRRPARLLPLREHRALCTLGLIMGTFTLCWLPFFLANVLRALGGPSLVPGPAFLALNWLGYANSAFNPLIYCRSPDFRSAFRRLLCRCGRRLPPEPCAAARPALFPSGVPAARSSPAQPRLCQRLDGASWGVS
Procedure: as §2

[8] = test system: isolated bladder smooth muscle; experiment: Relaxing activity against isolated bladder smooth muscle in human; conditions: relaxation by 10 μM forskolin = 100%
Procedure: This method was carried out in accordance with the literature [J. Urology, 165, 240 (2001)].
A normal part (non-cancerous part) of the bladder removed from a human male (32-72 years old) by bladder cancer surgery was used. A bladder section sizing about 3×10 mm was prepared in the nutrient solution (Krebs solution [NaCl 118 mM; KCl 4.7 mM; NaH2PO4 1.2 mM; glucose 10 mM; NaHCO3 25 mM; MgCl2.7H2O 1.2 mM; CaCl2.2H2O 2.5 mM]) sufficiently oxygenated with 95% O2+5% CO2. The sample was suspended in a Magnus tube filled with the nutrient solution (Krebs solution) aerated with 95% O2+5% CO2 at 37° C., and stabilized under a load of 0.5 g for 60 minutes or longer. The resting tension of the bladder sample was recorded in a pen recorder through a tension transducer. The test compound was cumulatively applied about every 10 minutes. The test compound was dissolved in distilled water or aqueous 10% DMSO solution (number of cases: 3 to 4/group).

[9] = SK-N-MC cells, cAMP, with CGP-20712A 1 μM, 100 or 300 nM Isoproterenol = 100%, tested up to 10 μM, read-out: β3 (logarithm of the 50% reaction concentration) (converted)

| SMILES | EC50 [6] | EC50 [7, 9] | EC50 [8] | Number of Voiding Episodes (female Spague-Dawley rat [3]; 3 mg/kg subcutaneously) | Change in Blood Pressure (female Spague-Dawley rat [4]; 3 mg/kg subcutaneously) | EC50 [7] | further results |
| --- | --- | --- | --- | --- | --- | --- | --- |
| Nc1nc(CC(=O)Nc2ccc(CCNC[C@H](O)c3ccccc3)cc2)cs1 [Compound 11, reference compound] |  |  |  | 0.67 ± 0.19 | −17.1 ± 3.5 mmHg |  | Change in Blood Pressure (female Spague-Dawley rat [1]; 3 mg/kg subcutaneously): −22.5 ± 5.6 mmHg; effect of decreasing the frequency of voiding episodes (female Spague-Dawley rat [2]): significant effect; Number of Voiding Episodes (female Spague-Dawley rat [3]; 3 mg/kg subcutaneously, listed as compound 11): did not show a significant effect; Change in Heart Rate (female Spague-Dawley rat [4]; 3 mg/kg subcutaneously, 3 mg/kg): 133.5 ± 8.2 % |
| C[C@H](NCc1cc(Cl)cc(Cl)c1)[C@H](O)c1ccc(O)c(NS(C)(=O)=O)c1 [Example 3, N-(5-((1R,2S)-2-(3,5-Dichlorobenzylamino)-1-hydroxypropyl)-2-hydroxyphenyl)methane-sulfonamide] | 89.1 nM |  |  | 0.50 ± 0.15* |  | 21.9 nM | EC50 [5]: 1070 nM |
| Cc1cc(C)cc(CN[C@@H](C)[C@H](O)c2ccc(O)c(NS(C)(=O)=O)c2)c1 [Example 5, N-(5-((1R,2S)-2-(3,5-Dimethylbenzylamino)-1-hydroxypropyl)-2-hydroxyphenyl)methane-sulfonamide] | 151 nM |  | 575 nM | 0.50 ± 0.15* |  | 72.4 nM |  |

Now from value to molecule, other results behind:

| EC50 [6] | EC50 [7, 9] | EC50 [8] | SMILES | Number of Voiding Episodes (female Spague-Dawley rat [3]; 3 mg/kg subcutaneously) | Change in Blood Pressure (female Spague-Dawley rat [4]; 3 mg/kg subcutaneously) | EC50 [7] | further results |
| --- | --- | --- | --- | --- | --- | --- | --- |
| 229 nM | 39.8 nM | 562 nM | COc1cc(CN[C@@H](C)[C@H](O)c2ccc(O)c(NS(C)(=O)=O)c2)cc(OC)c1 [Example 1, N-(5-((1R,2S)-2-(3,5-Dimethoxybenzylamino)-1-hydroxypropyl)-2-hydroxyphenyl)methane-sulfonamide] |  | −25.0 ± 3.6 mmHg |  | EC50 ([5]; CHO-K1 cells, cAMP, 100 or 300 nM Isoproterenol = 100%, tested up to 10 μM, n.d. = not detected at 10 μM, read-out: β2 (logarithm of the 50% reaction concentration) (converted)): 2340 nM; Change in Blood Pressure (female Spague-Dawley rat [1]; 0.3 mg/kg subcutaneously): −6.5 ± 5.5 mmHg; Change in Heart Rate (female Spague-Dawley rat [1]; 0.3 mg/kg subcutaneously): 107.7 ± 3.5%; Number of Voiding Episodes (female Spague-Dawley rat [3]; 0.1 mg/kg subcutaneously): 1.06 ± 0.17; Number of Voiding Episodes (female Spague-Dawley rat [3]; 0.3 mg/kg subcutaneously): 0.83 ± 0.12*; Number of Voiding Episodes (female Spague-Dawley rat [3]; 1 mg/kg subcutaneously): 0.94 ± 0.17*; Change in Blood Pressure (female Spague-Dawley rat [4]; 0.3 mg/kg subcutaneously): −25.2 ± 4.7 mmHg; Change in Heart Rate (female Spague-Dawley rat [4]; 0.3 mg/kg subcutaneously): 121.7 ± 4.2%; Change in Blood Pressure (female Spague-Dawley rat [4]; 1 mg/kg subcutaneously): −25.4 ± 2.3 mmHg; Change in Heart Rate (female Spague-Dawley rat [4]; 1 mg/kg subcutaneously): 126.4 ± 5.1%; Change in Heart Rate (female Spague-Dawley rat [4]; 3 mg/kg subcutaneously): 135.2 ± 8.4% |
| 36.3 nM | 31.6 nM |  | C[C@H](NCc1cc(C(F)(F)F)cc(C(F)(F)F)c1)[C@H](O)c1ccc(O)c(NS(C)(=O)=O)c1 [Example 2, N-(5-((1R,2S)-2-(3,5-Bis(trifluoromethyl)benzylamino)-1-hydroxypropyl)-2-hydroxyphenyl)methanesulfonamide] | 0.45 ± 0.21* |  |  |  |
| 74.1 nM | 33.1 nM | 708 nM | COc1cc(CN[C@@H](C)[C@H](O)c2ccc(O)c(NS(C)(=O)=O)c2)cc(OC)c1OC [Example 4, N-(2-Hydroxy-5-((1R,2S)-1-hydroxy-2-(3,4,5-trimethoxybenzylamino)propyl)phenyl)methane-sulfonamide] | 0.33 ± 0.19* |  |  |  |
